Here are results for 1 compound from patent US20190144368A1, “Compounds and compositions for biofilm prevention” (INHIBIO AS, priority 2016, published 2019).

Data set [1] deals with E. coli 1242 and E. coli 1153. In words: Biofilm formation in microtiter plates, comparison of 1,3-cyclohexanedione and menthone. The format is cell-based, Escherichia coli. The following applies: two values, one per strain (E. coli 1242, E. coli 1153). The procedure: All experiments were performed by using sterile 96-wells polystyrene microtiter plates (Nunc, Nuncleon, Roskilde, Denmark) under conditions promoting biofilm formation by the different bacterial genera. The Inhibio compound preparations of the invention; 1,3-cyclohexanedione, 1,4-cyclohexanedione, cyclopentanone, 5-ethylcyclohexane-1,3-dione and 5-methyl-1,3 cyclohexanedione 98% were solved directly in Tryptic Soy Broth (TSB) 1+1 or Liquid Microbiology Broth (LB) broth without NaCl (LB^wo/NaCl) to obtain the test concentrations, i.e. from 1 mg/ml to 10 mg/ml.
One Salmonella ser. Typhimurium (S. Typhimurium), two Salmonella ser. Agona (S. Agona) and two Escherichia coli (E. coli) isolates were used in these studies. The studies performed using 1,3-cyclohexanedione and 1,4-cyclohexanedione were done on Salmonella isolates only. The studies comparing Menthone to 1,3-cyclohexanedione were using two E. coli strains, E. coli 1242 and E. coli 1153, see FIG. 11. The Salmonella isolates were isolated from Norwegian feed factories except one S. Typhimurium strain which was a culture collection strain (ATCC 14028). The E. coli isolates were of animal origin. All strains were stored at −80° C. in BHI supplemented with 15% glycerine and were recovered on blood agar at 37.0±1.0° C. The bacterial cultures were then transferred into LB broth and incubated statically overnight at 37.0±1.0° C. to obtain an overnight working culture. […] After incubation, OD595 was measured before the plates were gently washed one time with 150 μl tap water. […] OD595 was measured in a microplate photometer (Multiscan EX) after the bound dye was dissolved using ethanol:acetone. For each strain, the result was calculated by subtracting the median OD595 of the three parallels of the control (test broth only) from the median OD595 of the three parallels of sample. Further, the averages of the Gram negative strains were calculated. Three independent experiments were performed and the average was evaluated.

Data set [2] can be described thus: NMR of cyclohexane-1,3-dione in aqueous solution (keto-enol tautomerism). The following applies: NMR-data. The format is physicochemical. The source says: In one embodiment, the compounds of the composition are able to undergo keto-enol tautomerism. Particularly 1,3-cyclodions, such as 1,3-cyclohexanediones, particularly such diones wherein neither or maximum one substituents are present in the C-2 position, have been found favourable as they can undergo keto-enol tautomerism. NMR-data of cyclohexane-1,3-dione support that in aqueous solution this compound exists in a highly enolised form where electrons are delocalised between the C-1-oxygen/C-1, C-2 and C-3/C-3-oxygen thereby rendering the C-2 methylene protons relatively acidic. […] It is believed that the acidity of the C-2 protons affect the solubility of the compound, providing a higher solubility than e.g. similar 1,4-carbocyclic compounds.

Data set [3] deals with Listeria monocytogenes (six strains). In words: Biofilm formation in microtiter plates, Listeria. The format is cell-based. The conditions noted are these: 24 hours at 35 °C. The procedure:
Six strains of Listeria monocytogenes were used in this study isolated from food research. The strains were recovered in 200 μl TSB broth in a microtiter plate and incubated at 37° C. for 24 hours. A total of 5 μl of the bacterial suspension was transferred to a 96 wells polystyrene microtiter plate (Thermo scientific Nucleon Delta surface) together with 200 μl medium (LB^wo/NaCl) with 1,3-cyclohexanedione (dissolved to 0,625 mg/ml, 2.5 mg/ml, 5 mg/ml and 10 mg/ml) to each well. Each strain was added in duplex and incubated at 35° C. for 24 hours. After incubation, OD595 was measured before the plates were gently washed one time with 200 μl tap water. This was repeated once. The plates were dried in room temperature before addition of 200 μl 0, 1% crystal violet (Sigma-Aldrich). After 30 minutes incubation in room temperature, the plates were washed twice with 200 μl tap water and once with 240 μl. This was followed by the addition of 200 μl ethanol:acetone (70:30 w:w) and incubated for another 10 minutes in room temperature. OD595 was measured in a microplate photometer (Multiscan EX) after the bound dye was dissolved using ethanol:acetone. For each strain, the result was calculated by subtracting the average OD595 of the two parallels of the control (test broth only) from the average OD595 of the two parallels of sample. Three independent experiments were performed. The average of the 6 strains as well as the average between the experiments was calculated.

Data set [4] has as its system S. Agona and E. coli (one strain each). Put plainly: Biofilm formed on stainless steel coupons by Gram negative bacteria (CFU count). The format is cell-based, Salmonella ser. Agona, Escherichia coli. The following applies: 20 °C for 72 hours. The procedure: One strain of S. Agona (FIG. 10) and one strain of E. coli (FIG. 10) was used in this study. The study was performed using 1,3-cyclohexanedione in a concentration of 1 and 10 mg/ml. The strain was stored at −80° C. in BHI (Difco, BD, Franklin Lakes, N.J., USA) supplemented with 15% glycerine (Merck KGaA, Darmstadt, Germany) and was recovered on blood agar at 37.0±1.0° C. The bacterial culture was then transferred into LB broth and was incubated statically overnight at 37.0±1.0° C. to obtain an overnight working culture. The Inhibio compound was dissolved in LB^wo/NaCl to a concentration of 10 mg/ml and then further diluted to a concentration of 1 mg/ml. 10 ml of each solution was added to a 50 ml Falcon tube and, in a third tube, only LB broth^wo/NaCl was added as a control. […]
Following incubation, each coupon was dipped three times in three different tubes containing physiological saline and further transferred to a tube containing 5 ml cold physiological saline as well as 20 sterile silica glass beads. […] After incubation, the bacterial colonies were counted. […]
The Colony forming units (CFU) on the plate was calculated into CFU in biofilm by multiplying with a factor for each dilution. Further, the log value was calculated of the average of each dilution.

“And” between values parts separate entries of the source, which are not always exact repeats. Equal values may be shown once. “Also recorded” adds a separate entry of the source.

For the compound `O=C1CCCC(=O)C1` [1,3-cyclohexanedione], the “decrease in biofilm formation” value in data set [1] (1 mg/ml) is 46% and 70%; in data set [1] (10 mg/ml), 97% and 100%. Moreover, in data set [2], the stability of tautomers result is listed as “stable at least over one day”. For the same compound, the “decrease in biofilm formation in percentage of the control” value in data set [3] (0.625 mg/ml) is 27%; in data set [3] (2.5 mg/ml), 40%; in data set [3] (5 mg/ml), 53%; in data set [3] (10 mg/ml), 70%. In addition, the “CFU in biofilm on stainless steel coupon” value in data set [4] (1 mg/ml) is listed as “decrease in biofilm formation; also recorded: significant decrease”; in data set [4] (10 mg/ml), “could not detect any colony forming units; also recorded: no bacteria found in the biofilm”.
